Results as given in PubChem BioAssay AID2060497 (Molecular Pharmacology Branch, DTP, NCI, 2025).

Tested on: 317291-083-R-J1-PDC complex spheroids, viability
Experiment: Anticancer human tumor 317291-083-R-J1-PDC patient-derived soft tissue sarcoma cell line growth inhibition [GQUAD]
Details: for IC50: curve of first compound; for viability, T/C: stronger effect = lower value
How it was run: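 Tumor cells were grown as complex spheroids with HUVEC endothelial cells and mesenchymal stem cells as stroma. G-quadruplex stabilizers were combined with targeted agents over half-log dilutions from near the clinical Cmax, or from 10 microM.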

[1] = second compound 0.0316 µM, first compound 0.0316 µM
[2] = second compound 0.0316 µM, first compound 0.1 µM
[3] = second compound 0.0316 µM, first compound 0.316 µM
[4] = second compound 0.0316 µM, first compound 1 µM
[5] = second compound 0.0316 µM, first compound 3.16 µM
[6] = second compound 0.0316 µM, first compound 10 µM
[7] = second compound 0.1 µM, first compound 0.0316 µM
[8] = second compound 0.1 µM, first compound 0.1 µM
[9] = second compound 0.1 µM, first compound 0.316 µM
[10] = second compound 0.1 µM, first compound 1 µM
[11] = second compound 0.1 µM, first compound 3.16 µM
[12] = second compound 0.1 µM, first compound 10 µM
[13] = second compound 0.316 µM, first compound 0.0316 µM
[14] = second compound 0.316 µM, first compound 0.1 µM
[15] = second compound 0.316 µM, first compound 0.316 µM
[16] = second compound 0.316 µM, first compound 1 µM
[17] = second compound 0.316 µM, first compound 3.16 µM
[18] = second compound 0.316 µM, first compound 10 µM
[19] = second compound 1 µM, first compound 0.0316 µM
[20] = second compound 1 µM, first compound 0.1 µM
[21] = second compound 1 µM, first compound 0.316 µM
[22] = second compound 1 µM, first compound 1 µM
[23] = second compound 1 µM, first compound 3.16 µM
[24] = second compound 1 µM, first compound 10 µM
[25] = second compound 3.16 µM, first compound 0.0316 µM
[26] = second compound 3.16 µM, first compound 0.1 µM
[27] = second compound 3.16 µM, first compound 0.316 µM
[28] = second compound 3.16 µM, first compound 1 µM
[29] = second compound 3.16 µM, first compound 3.16 µM
[30] = second compound 3.16 µM, first compound 10 µM
[31] = second compound 10 µM, first compound 0.0316 µM
[32] = second compound 10 µM, first compound 0.1 µM
[33] = second compound 10 µM, first compound 0.316 µM
[34] = second compound 10 µM, first compound 1 µM
[35] = second compound 10 µM, first compound 3.16 µM
[36] = second compound 10 µM, first compound 10 µM
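Further: spheroids exposed to compounds for one week before readout.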
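Wherever viability, T/C is given: percent viability relative to DMSO vehicle wells taken as 100%.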

With O=C(NO)c1cnc(N2CCN(S(=O)(=O)c3ccc4ccccc4c3)CC2)nc1 + CN(C)c1ccc(Nc2c3ccc(NC(=O)CCN4CCCC4)cc3nc3cc(NC(=O)CCN4CCCC4)ccc23)cc1 the IC50 (second compound 0.0316 µM) was 120 nM, the IC50 (second compound 0.1 µM) was 134 nM and the IC50 (second compound 0.316 µM) was 78.9 nM. For the same molecule, the IC50 (second compound 1 µM) was less than 31.6 nM, the IC50 (second compound 3.16 µM) was less than 31.6 nM and the IC50 (second compound 10 µM) was less than 31.6 nM. For the same molecule, the viability, T/C [1] was 102%, the viability, T/C [2] was 58.3% and the viability, T/C [3] was 5.38%. It also gave a viability, T/C [4] of 0.53%, a viability, T/C [5] of 0.02% and a viability, T/C [6] of 0.56%. The viability, T/C [7] was 97.1%, the viability, T/C [8] was 64.3% and the viability, T/C [9] was 7.56%. It also gave a viability, T/C [10] of 0.08%, a viability, T/C [11] of 0.71% and a viability, T/C [12] of 0.06%. The viability, T/C [13] was 90.5%, the viability, T/C [14] was 39.5% and the viability, T/C [15] was 5.83%. It also gave a viability, T/C [16] of 0.06%, a viability, T/C [17] of 0.09% and a viability, T/C [18] of 0.1%. The viability, T/C [19] was 38.2%, the viability, T/C [20] was 18.5% and the viability, T/C [21] was 1.87%. The viability, T/C [22] was 0.1%, the viability, T/C [23] was 0.06% and the viability, T/C [24] was 0.08%. For the same molecule, the viability, T/C [25] was 10.9%, the viability, T/C [26] was 1.33% and the viability, T/C [27] was 0.19%. The viability, T/C [28] was 0.07%, the viability, T/C [29] was 0.12% and the viability, T/C [30] was 0.09%. The viability, T/C [31] was 1.1%, the viability, T/C [32] was 0.76% and the viability, T/C [33] was 0.24%. The viability, T/C [34] was 0.36%, the viability, T/C [35] was 0.28% and the viability, T/C [36] was 0.21%.
COc1cc(C2c3cc4c(cc3C(OC3OC5COC(C)OC5C(O)C3O)C3COC(=O)C23)OCO4)cc(OC)c1O (centres undefined) + CN(C)c1ccc(Nc2c3ccc(NC(=O)CCN4CCCC4)cc3nc3cc(NC(=O)CCN4CCCC4)ccc23)cc1 was tested, and the IC50 (second compound 0.0316 µM) was 310 nM, the IC50 (second compound 0.1 µM) was 357 nM and the IC50 (second compound 0.316 µM) was 283 nM. It also gave an IC50 (second compound 1 µM) of 55.4 nM, an IC50 (second compound 3.16 µM) of less than 31.6 nM and an IC50 (second compound 10 µM) of less than 31.6 nM. For the same molecule, the viability, T/C [1] was 89.9%, the viability, T/C [2] was 82.2% and the viability, T/C [3] was 48.9%. For the same molecule, the viability, T/C [4] was 26.8%, the viability, T/C [5] was 19.4% and the viability, T/C [6] was 21.7%. For the same molecule, the viability, T/C [7] was 92.1%, the viability, T/C [8] was 86% and the viability, T/C [9] was 50.4%. The viability, T/C [10] was 29.6%, the viability, T/C [11] was 15.7% and the viability, T/C [12] was 18.1%. The viability, T/C [13] was 79.8%, the viability, T/C [14] was 71.9% and the viability, T/C [15] was 46.8%. The viability, T/C [16] was 26.1%, the viability, T/C [17] was 20.1% and the viability, T/C [18] was 12.3%. It also gave a viability, T/C [19] of 62.1%, a viability, T/C [20] of 37.9% and a viability, T/C [21] of 20.7%. For the same molecule, the viability, T/C [22] was 15.7%, the viability, T/C [23] was 13.5% and the viability, T/C [24] was 7.56%. For the same molecule, the viability, T/C [25] was 39%, the viability, T/C [26] was 12.5% and the viability, T/C [27] was 21.5%. It also gave a viability, T/C [28] of 9.89%, a viability, T/C [29] of 8.39% and a viability, T/C [30] of 6.12%. It also gave a viability, T/C [31] of 12.7%, a viability, T/C [32] of 8.34% and a viability, T/C [33] of 4.76%. For the same molecule, the viability, T/C [34] was 7.68%, the viability, T/C [35] was 5.05% and the viability, T/C [36] was 0.99%.
